Where two headings read alike, the source gives them in different places. Marks after values point to notes of the source that are not given here.
Assays:
Assay type in all cases: cell-based
[1] = system: E. faecalis ATCC 29212; test: MIC by NCCLS microdilution, EtBr/EPI with and without EPI; details: for Fold-reduction in EtBr MIC / MIC: E. faecalis ATCC 29212; for MIC: Enterococcus faecalis, ATCC29212
Description: (§1) 3% sterile laked horse blood (Quad Five, Ryegate, Mont.) was added to assays for E. faecalis and S. Pneumoniae. A final concentration of 1% DMSO was present in all assays.
(§2) EtBr is a general substrate for many different efflux pumps in bacteria. Markham et al., “Multiple Novel Inhibitors of the NorA Multidrug Transporter of Staphylococcus aureus”, Antimicrob. Agents Chemother. 43:2404-2408 (1999). Since EtBr is a non-specific DNA intercalator, the only known mechanism of resistance to EtBr is via efflux. Markham et al., “Multiple Novel Inhibitors of the NorA Multidrug Transporter of Staphylococcus aureus”, Antimicrob. Agents Chemother. 43:2404-2408 (1999).

[2] = system: S. pneumoniae ATCC 10015; test: as above; details: for MIC: Streptococcus pneumoniae, ATCC10015
Description: as §1, §2

[3] = system: S. aureus SA-K2068 (non-NorA multidrug efflux pump overproducing); test: microbe, parasite or virus in culture; details: for MIC: Staphylococcus aureus, read-out: MIC of EtBr with EPI; for Fold-reduction in MIC: gatifloxacin, S. aureus K2068 (nonNorA pump overproducer)
Text: (§3) A variety of strains may be used in these experiments, including, but not limited to, S. aureus ATCC 29213, E. faecalis ATCC 29212, and S. pneumoniae, S. aureus strains SA-1199, SA-1199B, SA-8325-4, and SA-K2068. S. aureus ATCC 29213, E. faecalis ATCC 29212, and S. pneumoniae ATCC 10015 were obtained from the American Type Culture Collection (Manassas, Va.). S. aureus strains SA-1199 (clinical isolate, susceptible), SA-1199B (SA-1199, NorA overproducing, also has A116E GrlA mutation), SA-8325-4 (NCTC 8325 cured of prophages), SA-K2068 (SA-8325-4, non-NorA multidrug efflux pump overproducing mutation) were obtained from Glenn Kaatz (Kaatz et al., “Identification and characterization of a novel efflux-related multidrug resistance phenotype in Staphylococcus aureus”, J. Antimicrob. Chemother. 50:833-838 (2002); 1993; Kaatz et al., “Phenothiazines and thioxanthenes inhibit multidrug efflux pump activity in Staphylococcus aureus”, Antimicrob. Agents Chemother. 47:719-726, Kaatz et al., “Efflux-mediated fluoroquinolone resistance in Staphylococcus aureus. Antimicrob. Agents Chemother.”, 37:1086-1094, 1993)).
as §1
Recent more hydrophobic fluoroquinolones such as gatifloxacin and moxifloxacin are less well recognized by NorA; however, recently one other pump in S. aureus has been described which also recognizes hydrophobic fluoroquinolones (Kaatz et al. 2002, supra). To investigate the potential of A-106 and C-9 to block the efflux of several fluoroquinolones in cells with constituitively over-expressed efflux pumps, we used S. aureus strains SA-1199B and K2068 (Table 3). […] Kaatz et al., “Phenothiazines and thioxanthenes inhibit multidrug efflux pump activity in Staphylococcus aureus”, Antimicrob. Agents Chemother. 47:719-726 (2003).

[4] = system: S. aureus SA-8325-4; test: MIC of fluoroquinolones with and without EPI; details: for MIC: Staphylococcus aureus
Text: as §3, §1

[5] = system: S. aureus SA-1199 (clinical isolate, susceptible); test: MIC of fluoroquinolones with and without EPI; details: for MIC: Staphylococcus aureus, read-out: MIC of EtBr with EPI
Text: as §3, §1

[6] = system: S. aureus ATCC 29213; test: Minimal effective concentration (MEC) of EPI for gatifloxacin; details: lowest amount of EPI which produces the maximum effect on the MIC of gatifloxacin
Description: (§4) The MEC was determined as the minimal concentration of EPI that produced the maximal reduction in substrate MIC.
Since any given compound may be recognized by an unknown number of efflux pumps in a particular organism, we reasoned that the MEC of A-106 and C-9 should vary for different antibiotics. Also, the MEC of A-106 and C-9 should vary with the degree of efflux expression in a given strain. […] This was confirmed with two other wild type strains, SA-8325-4 and SA-1199 (Table 3).

[7] = system: E. faecalis ATCC 29212; test: Minimal effective concentration (MEC) of EPI for EtBr; details: lowest amount of EPI which produces the maximum effect on the MIC of ethidium bromide
Description: as §4
(§5) The minimum effective concentration (MEC) for inhibition of EtBr efflux was determined in S. aureus, E. faecalis and S. pneumoniae for A-106 and C-9; reserpine was used as a comparator (Table 1).

[8] = system: S. aureus ATCC 29213; test: as above; details: S. aureus ATCC 29213; lowest amount of EPI which produces the maximum effect on the MIC of ethidium bromide
Description: as §4, §5

[9] = system: S. pneumoniae ATCC 10015; test: as above; details: lowest amount of EPI which produces the maximum effect on the MIC of ethidium bromide (reserpine: maximal subinhibitory concentration)
Description: as §4, §5

[10] = EPIs used at the MEC, except VX-710 at 100 μg/ml
[11] = EPI alone, read-out: MIC of EPI
[12] = EPIs used at the MEC, except VX-710 at 100 μg/ml, read-out: MIC of EtBr with EPI
[13] = S. pneumoniae ATCC 10015, EPIs used at the MEC, except VX-710 at 100 μg/ml
[14] = S. pneumoniae ATCC 10015, EPI alone, read-out: MIC of EPI
[15] = S. pneumoniae ATCC 10015, EPIs used at the MEC, except VX-710 at 100 μg/ml, read-out: MIC of EtBr with EPI
[16] = K2068, EPIs at 4 times MEC for EtBr, A-106 at 100 μg/ml
[17] = S. aureus K2068 (nonNorA pump overproducer) (Table 4)
[18] = S. aureus K2068, EPI at 4X the MEC for EtBr, VX-710 at 100 μg/ml
[19] = S. aureus SA-8325-4, EPI at 4X the MEC for EtBr, VX-710 at 100 μg/ml
[20] = S. aureus SA-1199, EPI at 4X the MEC for EtBr, VX-710 at 100 μg/ml

`COc1cc(C(=O)C(=O)N(C)[C@@H](Cc2ccc(Cl)cc2)C(=O)N(Cc2ccccc2)C(CCc2ccncc2)CCc2ccncc2)cc(OC)c1OC` [C-9, (S)—N-Benzyl-2-(methyl-(2-oxo-2-(3,4,5-trimethoxyphenyl)acetyl)amino)-3-(4-chloro-phenyl)-N-(3-pyridin-4-yl-1-(2-pyridin-4-yl-ethyl)propyl)propionamide] was tested, and the “Fold-reduction in EtBr MIC” value [1, 10] was 2, the MIC [1, 11] was greater than 100 µg/mL and the MIC [1, 12] was 3.1 µg/mL. The “intrinsic antibacterial activity of EPI” value ([1]; at 100 μg/ml, E. faecalis) was “no intrinsic antibacterial activity”, the “Fold-reduction in EtBr MIC” value [2, 13] was 2 and the MIC [2, 14] was greater than 100 µg/mL. For the same compound, the MIC [2, 15] was 1 µg/mL, the “intrinsic antibacterial activity of EPI” value ([2]; at 100 μg/ml, S. pneumoniae) was “no intrinsic antibacterial activity” and the “reduction of MIC of ciprofloxacin” value [3, 16] was 8 fold. The “reduction of MIC of gatifloxacin” value [3, 16] was 4 fold, the “reduction of MIC of levofloxacin” value [3, 16] was 2 fold and the “reduction of MIC of norfloxacin” value [3, 16] was 8 fold. For the same compound, the “MIC of gatifloxacin with EPI” value [3, 17] was 0.5 µg/mL, the “MIC of ciprofloxacin with EPI” value [3, 18] was 1 µg/mL and the “MIC of gatifloxacin with EPI” value [3, 18] was 0.5 µg/mL. For the same compound, the “MIC of gentamicin with EPI” value [3, 18] was 0.063 µg/mL, the “MIC of levofloxacin with EPI” value [3, 18] was 0.5 µg/mL and the “MIC of norfloxacin with EPI” value [3, 18] was 4 µg/mL. The MIC [3] was 3.1 µg/mL, the “Fold-reduction in MIC” value [3] was 2 and the “MIC of ciprofloxacin with EPI” value [4, 19] was 0.125 µg/mL. The “MIC of gatifloxacin with EPI” value [4, 19] was 0.125 µg/mL, the “MIC of gentamicin with EPI” value [4, 19] was 0.063 µg/mL and the “MIC of levofloxacin with EPI” value [4, 19] was 0.25 µg/mL. The “MIC of norfloxacin with EPI” value [4, 19] was 0.25 µg/mL, the MIC ([4]; SA83254, read-out: MIC of EtBr with EPI) was 0.8 µg/mL and the “MIC of ciprofloxacin with EPI” value [5, 20] was 0.125 µg/mL. For the same compound, the “MIC of gatifloxacin with EPI” value [5, 20] was 0.063 µg/mL, the “MIC of gentamicin with EPI” value [5, 20] was 0.125 µg/mL and the “MIC of levofloxacin with EPI” value [5, 20] was 0.125 µg/mL. The “MIC of norfloxacin with EPI” value [5, 20] was 0.25 µg/mL, the MIC [5] was 1.6 µg/mL and the MEC [6] was greater than 100 µg/mL. The “MEC of EPI” value [7] was 6.3 µg/mL, the “MEC of EPI” value [8] was 1.6 µg/mL and the “MEC of EPI” value [9] was 12.5 µg/mL.
For `COC(=O)[C@H]1[C@H]2C[C@@H]3c4[nH]c5cc(OC)ccc5c4CCN3C[C@H]2C[C@@H](OC(=O)c2cc(OC)c(OC)c(OC)c2)[C@@H]1OC` [reserpine, reference compound], the “Fold-reduction in EtBr MIC” value [1, 10] was 8, the MIC [1, 11] was greater than 100 µg/mL and the MIC [1, 12] was 0.8 µg/mL. For the same compound, the “Fold-reduction in EtBr MIC” value [2, 13] was 50, the “reduction in the MIC of EtBr” value ([2]; S. pneumoniae, reserpine 25 μg/ml (maximal subinhibitory concentration)) was 50 fold and the MIC [2, 14] was 50 µg/mL. The MIC [2, 15] was 0.04 µg/mL, the MIC ([2]; S. pneumoniae, read-out: MIC of EPI alone) was 50 µg/mL and the “MIC of gatifloxacin with EPI” value [3, 17] was 0.25 µg/mL. The “MIC of ciprofloxacin with EPI” value [3, 18] was 0.5 µg/mL, the “MIC of gatifloxacin with EPI” value [3, 18] was 0.25 µg/mL and the “MIC of gentamicin with EPI” value [3, 18] was 0.063 µg/mL. For the same compound, the “MIC of levofloxacin with EPI” value [3, 18] was 0.5 µg/mL, the “MIC of norfloxacin with EPI” value [3, 18] was 1 µg/mL and the MIC [3] was 1.6 µg/mL. For the same compound, the “Fold-reduction in MIC” value [3] was 4, the “MIC of ciprofloxacin with EPI” value [4, 19] was 0.125 µg/mL and the “MIC of gatifloxacin with EPI” value [4, 19] was 0.125 µg/mL. For the same compound, the “MIC of gentamicin with EPI” value [4, 19] was 0.063 µg/mL, the “MIC of levofloxacin with EPI” value [4, 19] was 0.25 µg/mL and the “MIC of norfloxacin with EPI” value [4, 19] was 0.25 µg/mL. The MIC ([4]; SA83254, S. aureus SA-8325-4, EPI at 4X the MEC for EtBr, VX-710 at 100 μg/ml, read-out: MIC of EtBr with EPI) was 0.4 µg/mL, the “MIC of ciprofloxacin with EPI” value [5, 20] was 0.063 µg/mL and the “MIC of gatifloxacin with EPI” value [5, 20] was 0.063 µg/mL. The “MIC of gentamicin with EPI” value [5, 20] was 0.125 µg/mL, the “MIC of levofloxacin with EPI” value [5, 20] was 0.125 µg/mL and the “MIC of norfloxacin with EPI” value [5, 20] was 0.125 µg/mL. The MIC [5, 20] was 0.4 µg/mL, the MEC [6] was greater than 100 µg/mL and the “MEC of EPI” value [7] was “≧100 μg/ml”. For the same compound, the “MEC of EPI” value [8] was 6.3 µg/mL and the “MEC of EPI” value [9] was 25^c μg/ml.
